Test results as given in the NIST ThermoML archive (doi:10.1021/je049925a).

Settings: Liquid; for speed of sound: Sing-around technique in a fixed-path interferometer; for vapor or sublimation pressure: Closed cell (Static) method

CC(F)F [1,1-difluoroethane]
Settings	speed of sound [m/s]
243.15 K, 138 kPa	920.2
243.15 K, 442 kPa	922.3
243.15 K, 595 kPa	923.2
243.15 K, 1302 kPa	927.8
243.15 K, 1815 kPa	931
243.15 K, 2160 kPa	933.1
243.15 K, 2762 kPa	936.9
243.15 K, 3217 kPa	939.9
243.15 K, 3854 kPa	943.7
243.15 K, 4428 kPa	947.1
243.15 K, 5359 kPa	952.7
243.15 K, 6355 kPa	958.6
243.15 K, 7657 kPa	966.2
243.15 K, 8846 kPa	973.1
243.15 K, 10231 kPa	981
243.15 K, 11681 kPa	989
243.15 K, 13279 kPa	997.6
243.15 K, 14943 kPa	1005.5
243.15 K, 16723 kPa	1015.9
243.15 K, 17442 kPa	1019.5
243.15 K, 18731 kPa	1026.3
243.15 K, 20194 kPa	1033.7
243.15 K, 22819 kPa	1046.4
243.15 K, 25117 kPa	1058.6
243.15 K, 27154 kPa	1068.9
243.15 K, 30242 kPa	1084.3
263.15 K, 407 kPa	822.3
263.15 K, 581 kPa	823.3
263.15 K, 759 kPa	824.6
263.15 K, 928 kPa	825.5
263.15 K, 1550 kPa	831.3
263.15 K, 2228 kPa	835.9
263.15 K, 2461 kPa	837.6
263.15 K, 3130 kPa	842.9
263.15 K, 3429 kPa	844.7
263.15 K, 3914 kPa	848.6
263.15 K, 5038 kPa	856.2
263.15 K, 5789 kPa	861.4
263.15 K, 6568 kPa	866.7
263.15 K, 7201 kPa	871
263.15 K, 7967 kPa	876.3
263.15 K, 8899 kPa	881.9
263.15 K, 9893 kPa	888.5
263.15 K, 11531 kPa	898.7
263.15 K, 13616 kPa	912
263.15 K, 15466 kPa	922.7
263.15 K, 17421 kPa	934.4
263.15 K, 18552 kPa	941
263.15 K, 19791 kPa	947.4
263.15 K, 21881 kPa	959.5
263.15 K, 25895 kPa	980.9
263.15 K, 27572 kPa	989.5
263.15 K, 29409 kPa	998.8
283.15 K, 547 kPa	722.7
283.15 K, 750 kPa	724.6
283.15 K, 1038 kPa	727.4
283.15 K, 1402 kPa	731.2
283.15 K, 1697 kPa	733.8
283.15 K, 2322 kPa	739.5
283.15 K, 2793 kPa	743.7
283.15 K, 3256 kPa	747.8
283.15 K, 3975 kPa	754
283.15 K, 4329 kPa	756.9
283.15 K, 5020 kPa	762.5
283.15 K, 6373 kPa	773.5
283.15 K, 7420 kPa	781.9
283.15 K, 8061 kPa	787
283.15 K, 9151 kPa	795.4
283.15 K, 10246 kPa	803.6
283.15 K, 11356 kPa	811.6
283.15 K, 13100 kPa	824
283.15 K, 14824 kPa	835.9
283.15 K, 16147 kPa	844.8
283.15 K, 18020 kPa	857
283.15 K, 19869 kPa	868.3
283.15 K, 22681 kPa	885.6
283.15 K, 24751 kPa	897.6
283.15 K, 27174 kPa	911.6
283.15 K, 29569 kPa	925.1
298.15 K, 660 kPa	648
298.15 K, 1153 kPa	653.4
298.15 K, 1656 kPa	658.8
298.15 K, 2142 kPa	663.6
298.15 K, 3104 kPa	674.1
298.15 K, 3609 kPa	679.2
298.15 K, 4115 kPa	684.3
298.15 K, 5023 kPa	692.9
298.15 K, 5998 kPa	702.2
298.15 K, 6939 kPa	710.9
298.15 K, 8037 kPa	720.6
298.15 K, 9271 kPa	731.2
298.15 K, 10321 kPa	740.1
298.15 K, 11735 kPa	751.5
298.15 K, 13300 kPa	763.9
298.15 K, 14789 kPa	775.3
298.15 K, 16388 kPa	787.1
298.15 K, 18041 kPa	799
298.15 K, 19521 kPa	809.3
298.15 K, 20530 kPa	816.2
298.15 K, 22781 kPa	831.1
298.15 K, 24289 kPa	840.6
298.15 K, 26870 kPa	856.4
298.15 K, 30717 kPa	878.8
313.15 K, 1222 kPa	575.1
313.15 K, 1721 kPa	581.7
313.15 K, 2288 kPa	589.2
313.15 K, 2776 kPa	595.3
313.15 K, 3587 kPa	605.3
313.15 K, 4184 kPa	612.4
313.15 K, 4942 kPa	621
313.15 K, 6282 kPa	635.8
313.15 K, 7106 kPa	644.5
313.15 K, 8134 kPa	655.1
313.15 K, 9180 kPa	665.6
313.15 K, 9927 kPa	672.7
313.15 K, 11390 kPa	686.3
313.15 K, 12765 kPa	698.6
313.15 K, 15195 kPa	719.2
313.15 K, 16072 kPa	726.4
313.15 K, 17264 kPa	736
313.15 K, 19072 kPa	749.8
313.15 K, 21055 kPa	764.7
313.15 K, 22659 kPa	776.2
313.15 K, 25122 kPa	793.3
313.15 K, 27530 kPa	808.2
313.15 K, 29895 kPa	822.3
333.15 K, 2129 kPa	478.7
333.15 K, 2606 kPa	487.2
333.15 K, 3860 kPa	507.8
333.15 K, 4725 kPa	520.6
333.15 K, 5932 kPa	538
333.15 K, 7142 kPa	552.1
333.15 K, 8008 kPa	565.1
333.15 K, 9016 kPa	577.2
333.15 K, 10079 kPa	589.7
333.15 K, 11228 kPa	602.3
333.15 K, 13279 kPa	623.8
333.15 K, 15330 kPa	643.8
333.15 K, 17092 kPa	660.1
333.15 K, 18393 kPa	671.6
333.15 K, 19875 kPa	684.3
333.15 K, 22222 kPa	702.8
333.15 K, 24752 kPa	723.7
333.15 K, 24836 kPa	723.7
333.15 K, 26902 kPa	738.8
333.15 K, 29698 kPa	758.6

Settings	vapor or sublimation pressure [kPa]
243.15 K	73
263.15 K	179
283.15 K	372
298.15 K	595
313.15 K	907
333.15 K	1499
